Data published in PubChem BioAssay AID1963837 (Molecular Pharmacology Branch, DTP, NCI, 2024).

test system: 843126-344-R-J1-PDC complex spheroid viability; test: Anticancer human tumor 843126-344-R-J1-PDC patient-derived melanoma cell line growth inhibition [POLQ]; settings: second compound 0.316 µM; first compound 0.316 µM; hits give low values
Outline: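 Three-cell-type spheroids modelling solid tumor plus stroma served as the readout system; POL inhibitors were tested individually and in combination, concentration ranges set by clinical Cmax where known.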
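Further: spheroids exposed to drugs for seven days before readout.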

| SMILES | viability, T/C [%] |
| --- | --- |
| C=CCn1c(=O)c2cnc(Nc3ccc(N4CCN(C)CC4)cc3)nc2n1-c1cccc(C(C)(C)O)n1 + Nc1ccc(C#CCN(C(=O)Cc2ncc(C(F)(F)F)cc2C(F)(F)F)c2ccc(F)cc2)nn1 | 93.6 |
| CCc1c2c(nc3ccc(O)cc13)-c1cc3c(c(=O)n1C2)COC(=O)[C@]3(O)CC + Nc1ccc(C#CCN(C(=O)Cc2ncc(C(F)(F)F)cc2C(F)(F)F)c2ccc(F)cc2)nn1 | 63.3 |
| COc1cccc(OCCCN)c1-c1cc(Nc2cnc(C#N)cn2)n[nH]1 + Nc1ccc(C#CCN(C(=O)Cc2ncc(C(F)(F)F)cc2C(F)(F)F)c2ccc(F)cc2)nn1 | 42.2 |
| Nc1ccn(C2OC(CO)C(O)C2(F)F)c(=O)n1 (stereo unspecified) + Nc1ccc(C#CCN(C(=O)Cc2ncc(C(F)(F)F)cc2C(F)(F)F)c2ccc(F)cc2)nn1 | 36 |
| O=C(c1cc(Cc2n[nH]c(=O)c3ccccc23)ccc1F)N1CCN(C(=O)C2CC2)CC1 + Nc1ccc(C#CCN(C(=O)Cc2ncc(C(F)(F)F)cc2C(F)(F)F)c2ccc(F)cc2)nn1 | 84 |
| O=c1[nH]cc(F)c(=O)[nH]1 + Nc1ccc(C#CCN(C(=O)Cc2ncc(C(F)(F)F)cc2C(F)(F)F)c2ccc(F)cc2)nn1 | 101 |

same assay, conditions: second compound 0.316 µM; first compound 1 µM; hits give low values

| SMILES | viability, T/C [%] |
| --- | --- |
| C=CCn1c(=O)c2cnc(Nc3ccc(N4CCN(C)CC4)cc3)nc2n1-c1cccc(C(C)(C)O)n1 + Nc1ccc(C#CCN(C(=O)Cc2ncc(C(F)(F)F)cc2C(F)(F)F)c2ccc(F)cc2)nn1 | 72 |
| CCc1c2c(nc3ccc(O)cc13)-c1cc3c(c(=O)n1C2)COC(=O)[C@]3(O)CC + Nc1ccc(C#CCN(C(=O)Cc2ncc(C(F)(F)F)cc2C(F)(F)F)c2ccc(F)cc2)nn1 | 48.5 |
| COc1cccc(OCCCN)c1-c1cc(Nc2cnc(C#N)cn2)n[nH]1 + Nc1ccc(C#CCN(C(=O)Cc2ncc(C(F)(F)F)cc2C(F)(F)F)c2ccc(F)cc2)nn1 | 35.1 |
| Nc1ccn(C2OC(CO)C(O)C2(F)F)c(=O)n1 (stereo unspecified) + Nc1ccc(C#CCN(C(=O)Cc2ncc(C(F)(F)F)cc2C(F)(F)F)c2ccc(F)cc2)nn1 | 38 |
| O=C(c1cc(Cc2n[nH]c(=O)c3ccccc23)ccc1F)N1CCN(C(=O)C2CC2)CC1 + Nc1ccc(C#CCN(C(=O)Cc2ncc(C(F)(F)F)cc2C(F)(F)F)c2ccc(F)cc2)nn1 | 84.1 |
| O=c1[nH]cc(F)c(=O)[nH]1 + Nc1ccc(C#CCN(C(=O)Cc2ncc(C(F)(F)F)cc2C(F)(F)F)c2ccc(F)cc2)nn1 | 101 |

same assay, conditions: second compound 0.316 µM; first compound 3.16 µM; hits give low values

| SMILES | viability, T/C [%] |
| --- | --- |
| Nc1ccn(C2OC(CO)C(O)C2(F)F)c(=O)n1 (stereo unspecified) + Nc1ccc(C#CCN(C(=O)Cc2ncc(C(F)(F)F)cc2C(F)(F)F)c2ccc(F)cc2)nn1 | 38.9 |
| O=C(c1cc(Cc2n[nH]c(=O)c3ccccc23)ccc1F)N1CCN(C(=O)C2CC2)CC1 + Nc1ccc(C#CCN(C(=O)Cc2ncc(C(F)(F)F)cc2C(F)(F)F)c2ccc(F)cc2)nn1 | 90.7 |
| O=c1[nH]cc(F)c(=O)[nH]1 + Nc1ccc(C#CCN(C(=O)Cc2ncc(C(F)(F)F)cc2C(F)(F)F)c2ccc(F)cc2)nn1 | 111 |

same assay, conditions: second compound 0.316 µM; first compound 10 µM; hits give low values

| SMILES | viability, T/C [%] |
| --- | --- |
| Nc1ccn(C2OC(CO)C(O)C2(F)F)c(=O)n1 (stereo unspecified) + Nc1ccc(C#CCN(C(=O)Cc2ncc(C(F)(F)F)cc2C(F)(F)F)c2ccc(F)cc2)nn1 | 37.3 |
| O=C(c1cc(Cc2n[nH]c(=O)c3ccccc23)ccc1F)N1CCN(C(=O)C2CC2)CC1 + Nc1ccc(C#CCN(C(=O)Cc2ncc(C(F)(F)F)cc2C(F)(F)F)c2ccc(F)cc2)nn1 | 80.2 |
| O=c1[nH]cc(F)c(=O)[nH]1 + Nc1ccc(C#CCN(C(=O)Cc2ncc(C(F)(F)F)cc2C(F)(F)F)c2ccc(F)cc2)nn1 | 92.6 |

same assay, conditions: second compound 1 µM; first compound 0.00316 µM; hits give low values

| SMILES | viability, T/C [%] |
| --- | --- |
| C=CCn1c(=O)c2cnc(Nc3ccc(N4CCN(C)CC4)cc3)nc2n1-c1cccc(C(C)(C)O)n1 + Nc1ccc(C#CCN(C(=O)Cc2ncc(C(F)(F)F)cc2C(F)(F)F)c2ccc(F)cc2)nn1 | 106 |
| CCc1c2c(nc3ccc(O)cc13)-c1cc3c(c(=O)n1C2)COC(=O)[C@]3(O)CC + Nc1ccc(C#CCN(C(=O)Cc2ncc(C(F)(F)F)cc2C(F)(F)F)c2ccc(F)cc2)nn1 | 75.3 |
| COc1cccc(OCCCN)c1-c1cc(Nc2cnc(C#N)cn2)n[nH]1 + Nc1ccc(C#CCN(C(=O)Cc2ncc(C(F)(F)F)cc2C(F)(F)F)c2ccc(F)cc2)nn1 | 89.8 |

same assay, conditions: second compound 1 µM; first compound 0.01 µM; hits give low values

| SMILES | viability, T/C [%] |
| --- | --- |
| C=CCn1c(=O)c2cnc(Nc3ccc(N4CCN(C)CC4)cc3)nc2n1-c1cccc(C(C)(C)O)n1 + Nc1ccc(C#CCN(C(=O)Cc2ncc(C(F)(F)F)cc2C(F)(F)F)c2ccc(F)cc2)nn1 | 80.8 |
| CCc1c2c(nc3ccc(O)cc13)-c1cc3c(c(=O)n1C2)COC(=O)[C@]3(O)CC + Nc1ccc(C#CCN(C(=O)Cc2ncc(C(F)(F)F)cc2C(F)(F)F)c2ccc(F)cc2)nn1 | 46.9 |
| COc1cccc(OCCCN)c1-c1cc(Nc2cnc(C#N)cn2)n[nH]1 + Nc1ccc(C#CCN(C(=O)Cc2ncc(C(F)(F)F)cc2C(F)(F)F)c2ccc(F)cc2)nn1 | 72.6 |

same assay, conditions: second compound 1 µM; first compound 0.0316 µM; hits give low values

| SMILES | viability, T/C [%] |
| --- | --- |
| C=CCn1c(=O)c2cnc(Nc3ccc(N4CCN(C)CC4)cc3)nc2n1-c1cccc(C(C)(C)O)n1 + Nc1ccc(C#CCN(C(=O)Cc2ncc(C(F)(F)F)cc2C(F)(F)F)c2ccc(F)cc2)nn1 | 87.7 |
| CCc1c2c(nc3ccc(O)cc13)-c1cc3c(c(=O)n1C2)COC(=O)[C@]3(O)CC + Nc1ccc(C#CCN(C(=O)Cc2ncc(C(F)(F)F)cc2C(F)(F)F)c2ccc(F)cc2)nn1 | 61.3 |
| COc1cccc(OCCCN)c1-c1cc(Nc2cnc(C#N)cn2)n[nH]1 + Nc1ccc(C#CCN(C(=O)Cc2ncc(C(F)(F)F)cc2C(F)(F)F)c2ccc(F)cc2)nn1 | 59.6 |
| Nc1ccn(C2OC(CO)C(O)C2(F)F)c(=O)n1 (stereo unspecified) + Nc1ccc(C#CCN(C(=O)Cc2ncc(C(F)(F)F)cc2C(F)(F)F)c2ccc(F)cc2)nn1 | 36.3 |
| O=C(c1cc(Cc2n[nH]c(=O)c3ccccc23)ccc1F)N1CCN(C(=O)C2CC2)CC1 + Nc1ccc(C#CCN(C(=O)Cc2ncc(C(F)(F)F)cc2C(F)(F)F)c2ccc(F)cc2)nn1 | 93.1 |
| O=c1[nH]cc(F)c(=O)[nH]1 + Nc1ccc(C#CCN(C(=O)Cc2ncc(C(F)(F)F)cc2C(F)(F)F)c2ccc(F)cc2)nn1 | 110 |

same assay, conditions: second compound 1 µM; first compound 0.1 µM; hits give low values

| SMILES | viability, T/C [%] |
| --- | --- |
| C=CCn1c(=O)c2cnc(Nc3ccc(N4CCN(C)CC4)cc3)nc2n1-c1cccc(C(C)(C)O)n1 + Nc1ccc(C#CCN(C(=O)Cc2ncc(C(F)(F)F)cc2C(F)(F)F)c2ccc(F)cc2)nn1 | 90.4 |
